Reference: patent US5914348A, “Substance FA-70D, process for producing the same, and uses thereof” (Taiho Pharmaceutical Co., Ltd., priority 1996, dated 1999)
Numbered stars: 1 amine (or outer) side, 2 acyl side, 3 side chain; on linkers, the order of the positions; unused ones are H or OH. Square brackets hold non-standard residues; d marks the D form. Peptide text beside a SMILES is read from it. Cit = NC(=O)NCCC[CH](N)C(=O)O; Phe(ol) = N[CH](CO)Cc1ccccc1; CO = O=C([*:1])[*:2]

Tests used:
[1] = target: cathepsin B (Homo sapiens, UniProt P07858); experiment: Inhibitory activity against cathepsin B (fluorescence, carbobenzoxy-L-phenylalanyl-L-arginine-4-methylcoumaryl-7-amide substrate); assay type: biochemical; settings: pH 6.0, 40° C., read-out: Enzyme inhibitory activity (%)
Description: (§1) The inhibitory activity against cathepsin L or cathepsin B was assayed by the method of A. J. Barrett et al. [Biochemical Journal, 201, 189-198, 1982]. The chymotrypsin- or trypsin-hibitory activity was assayed in accordance with the methods described in Tsuru, D. and Funatsu, M. (ed.), Seikagaku Jikkenho-Tanpakushitsu Bunkai Koso II [Methods of Biochemistry, Proteolytic Enzymes II], vol. 31, 7-14, 1993.
(§2) The method for assay of inhibitory activity against cathepsin B is as follows. Thus, 0.5 ml of 400 mM sodium phosphate buffer (pH 6.0) containing 8 mM dithiothreitol and 4 mM tetrasodium ethylenediaminetetracetate, 0.8 ml of an enzyme solution containing 5 μM cathepsin B and 0.1% Brij 35 (Wako Pure Chemical Ind.), and 0.2 ml of an aqueous solution of the compound of the invention were preincubated at 40° C. for 10 minutes. […] The intensity of fluorescence (F) was determined at an exciting wavelength of 350 nm and an emission wavelength of 458 nm. As a control, 0.2 ml of water was added in lieu of 0.2 ml of said aqueous solution of the compound of the invention and the intensity of fluorescence (F0) at 458 nm was similarly measured. The enzyme inhibitory activity was calculated by means of the following formula. […]

[2] = target: cathepsin L (Homo sapiens, UniProt P07711); experiment: Inhibitory activity against cathepsin L (fluorescence, carbobenzoxy-L-phenylalanyl-L-arginine-4-methylcoumaryl-7-amide substrate); assay type: biochemical
Description: as §1
The method for assay of inhibitory activity against cathepsin B is as follows. Thus, 0.5 ml of 400 mM sodium phosphate buffer (pH 6.0) containing 8 mM dithiothreitol and 4 mM tetrasodium ethylenediaminetetracetate, 0.8 ml of an enzyme solution containing 5 μM cathepsin B and 0.1% Brij 35 (Wako Pure Chemical Ind.), and 0.2 ml of an aqueous solution of the compound of the invention were preincubated at 40° C. for 10 minutes. Then, 0.5 ml of a 0.1% aqueous solution of dimethyl sulfoxide containing 20 μM carbobenzoxy-L-phenylalanyl-L-arginine-4-methylcoumaryl-7-amide was added and the mixture was incubated at 40° C. for 10 minutes. The enzymatic reaction was then stopped by adding 2.0 ml of 100 mM sodium acetate buffer (pH 4.3) containing 100 mM sodium monochloroacetate. The intensity of fluorescence (F) was determined at an exciting wavelength of 350 nm and an emission wavelength of 458 nm. As a control, 0.2 ml of water was added in lieu of 0.2 ml of said aqueous solution of the compound of the invention and the intensity of fluorescence (F0) at 458 nm was similarly measured. The enzyme inhibitory activity was calculated by means of the following formula.
(§3) Enzyme inhibitory activity (%)=F/F0 ×100
The inhibitory activity against cathepsin L was assayed as follows. Thus, except that cathepsin L was used in lieu of cathepsin B at the same concentration and the 400 mM sodium phosphate buffer was adjusted to pH 5.5, the above assay procedure for cathepsin B was otherwise repeated to determine the enzyme inhibitory activity.

[3] = target: chymotrypsin (Bos taurus, UniProt P00766); experiment: Inhibitory activity against chymotrypsin (fluorescence, succinyl-L-leucyl-L-leucyl-L-valyl-L-tyrosine-4-methylcoumaryl-7-amide substrate); assay type: biochemical
Description: as §1
(§4) The inhibitory activity against chymotrypsin was assayed in the following manner. Thus, 0.1 ml of 100 mM Tris-HCl buffer (pH 7.5), 0.15 ml of water, 0.01 ml of 5 ng/ml chymotrypsin/water, and 0.04 ml of an aqueous solution of the compound of the invention were preincubated at 37° C. for 5 minutes. Then, 0.1 ml of an aqueous solution containing 100 μM succinyl-L-leucyl-L-leucyl-L-valyl-L-tyrosine-4-methylcoumaryl-7-amide was added and the mixture was incubated at 37° C. for 20 minutes. The enzymatic reaction was stopped by adding 0.5 ml of 100 mM sodium acetate buffer (pH 4.3) containing 100 mM sodium monochloroacetate and the intensity of fluorescence (F) was measured at an exciting wavelength of 350 nm and an emission wavelength of 458 nm. As a control, 0.04 ml of water was added in lieu of 0.04 ml of said aqueous solution of the compound of the invention and the intensity of fluorescence (F0) at 458 nm was similarly measured. The enzyme inhibitory activity was calculated by the following formula.
as §3

[4] = target: T1, trypsin (Bos taurus, UniProt P00760); experiment: Inhibitory activity against trypsin (fluorescence, benzoyl-L-leucyl-L-lysyl-arginine-4-methylcoumaryl-7-amide substrate); assay type: biochemical; settings: pH 7.5, 37° C., read-out: Enzyme inhibitory activity (%)
T1 sequence (P00760 24-246): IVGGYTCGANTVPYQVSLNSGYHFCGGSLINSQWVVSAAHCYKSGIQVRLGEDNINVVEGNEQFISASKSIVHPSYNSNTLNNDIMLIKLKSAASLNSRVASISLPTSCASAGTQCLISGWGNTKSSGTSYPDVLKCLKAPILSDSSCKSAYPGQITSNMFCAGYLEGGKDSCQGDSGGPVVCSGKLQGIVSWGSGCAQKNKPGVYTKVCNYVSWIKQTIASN
Description: as §1, §4, §3
The inhibitory activity against trypsin was measured as follows. Except that trypsin was used in lieu of chymotrypsin at the same concentration and benzoyl-L-leucyl-L-lysyl-arginine-4-methylcoumaryl-7-amide was used in lieu of succinyl-L-leucyl-L-leucyl-L-valyl-L-tyrosine-4-methylcoumaryl-7-amide at the same concentration, the above procedure for assaying the inhibitory activity against chymotrypsin was otherwise repeated and the enzyme inhibitory activity was calculated in the same manner as above.

[5] = target: T2, papain (Carica papaya, UniProt P00784); experiment: Assay of papain inhibitory activity; assay type: biochemical; settings: used for identification during purification
T2 sequence (P00784 134-345): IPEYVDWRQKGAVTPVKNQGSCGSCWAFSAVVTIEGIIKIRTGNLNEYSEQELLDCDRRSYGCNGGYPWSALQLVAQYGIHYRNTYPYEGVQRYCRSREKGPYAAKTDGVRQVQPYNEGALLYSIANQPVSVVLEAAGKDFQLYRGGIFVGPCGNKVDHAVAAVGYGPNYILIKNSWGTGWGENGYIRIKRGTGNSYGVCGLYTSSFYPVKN
Description: Detection of active fractions containing Substance FA-70D in each stage was carried out by the assay of papain inhibitory activity (Biochemical Journal, 201, 189-198, 1982).
Thus, 0.5 ml of 400 mM sodium phosphate buffer (pH 6.8) containing 8 mM dithiothreitol and 4 mM tetrasodium ethylenediaminetetracetate, 0.8 ml of an enzyme solution containing 5 μM papain and 0.1% Brij 35 (polyoxyethylene (23) lauryl ether) (Wako Pure Chemical Ind.), and 0.2 ml of an aqueous solution containing a sample were preincubated at 40° C. for 10 minutes. Then, 0.5 ml of a 0.1% aqueous solution of dimethyl sulfoxide containing 20 μM carbobenzoxy-L-phenylalanyl-L-arginine-4-methylcoumaryl-7-amide was added and the mixture was incubated at 40° C. for 10 minutes. The enzymatic reaction was stopped by adding 2.0 ml of 100 mM sodium acetate buffer (pH 4.3) containing 100 mM sodium monochloroacetate and the intensity of fluorescence (F) was measured at an exciting wavelength of 350 nm and an emission wavelength of 458 nm. As a control, 0.2 ml of water was added in lieu of 0.2 ml of said aqueous solution of the sample and the intensity of fluorescence (F0) at 458 nm was similarly measured. The enzyme inhibitory activity was calculated by means of the following formula.
as §3

[6] = Solubility; assay type: physicochemical
[7] = system: cathepsin series proteases; experiment: Inhibition of cathepsin series proteases; assay type: biochemical
Description: as §1, §2

Chain of cathepsin L (P07711 114-333, species assumed): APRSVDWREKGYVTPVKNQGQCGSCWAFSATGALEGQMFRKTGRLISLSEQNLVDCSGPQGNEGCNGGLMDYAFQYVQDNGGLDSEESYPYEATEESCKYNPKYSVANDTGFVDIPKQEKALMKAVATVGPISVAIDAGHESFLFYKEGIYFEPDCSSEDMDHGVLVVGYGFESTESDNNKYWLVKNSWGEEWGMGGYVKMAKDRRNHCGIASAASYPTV

CC(C)C(NC(=O)C(CCCNC(N)=O)NC(=O)NC(Cc1ccccc1)C(=O)O)C(=O)NC(CO)Cc1ccccc1 (stereo not drawn) [Substance FA-70D] ({Phe-CO}-[Cit]-Val-[Phe(ol)]; configuration not given here)
inhibition at 1 µM ([1]; FA-70D 10^-6 M): 85.5% | inhibition at 0.1 µM ([1]; FA-70D 10^-7 M): 23.7% | inhibits cathepsin L more strongly than cathepsin B ([2]; cathepsin L vs cathepsin B, Test Example 1): inhibits cathepsin L more strongly than cathepsin B | inhibition at 1 µM ([2]; cathepsin L, FA-70D 10^-6 M, pH 5.5, 40° C., read-out: Enzyme inhibitory activity (%)): 93.5% | inhibition at 0.1 µM ([2]; cathepsin L, FA-70D 10^-7 M, pH 5.5, 40° C., read-out: Enzyme inhibitory activity (%)): 72% | inhibition at 0.01 µM ([2]; cathepsin L, FA-70D 10^-8 M, pH 5.5, 40° C., read-out: Enzyme inhibitory activity (%)): 15.1% | inhibits chymotrypsin more strongly than trypsin ([3]; chymotrypsin vs trypsin, Test Example 1): inhibits chymotrypsin more strongly than trypsin | inhibition at 1 µM ([3]; chymotrypsin, FA-70D 10^-6 M, pH 7.5, 37° C., read-out: Enzyme inhibitory activity (%)): 99.9% | inhibition at 0.1 µM ([3]; chymotrypsin, FA-70D 10^-7 M, pH 7.5, 37° C., read-out: Enzyme inhibitory activity (%)): 97.6% | inhibition at 0.01 µM ([3]; chymotrypsin, FA-70D 10^-8 M, pH 7.5, 37° C., read-out: Enzyme inhibitory activity (%)): 70.7% | inhibition at 1 µM ([4]; FA-70D 10^-6 M): 43.3% | inhibition at 0.1 µM ([4]; FA-70D 10^-7 M): 14% | inhibition at 0.01 µM ([4]; FA-70D 10^-8 M): 9.4% | enzymatic activity of papain inhibited by the substance [5]: inhibited by the substance | Solubility ([6]; in chloroform, acetone, ethyl acetate, ether, and hexane): Practically insoluble | Solubility ([6]; in ethanol): slightly soluble | Solubility ([6]; in methanol and dimethylsulfoxide): readily soluble | inhibit cathepsin series proteases [7]: strongly inhibit
